# Experiments:
# [1] = test system: dogs suffered from acute diarrhea; assay: Treatment of diarrhea of dogs with formula-2.2; format: in vivo
# Method: Two groups of dogs suffered from acute diarrhea with the symptoms of vomiting, depression, dehydration, listlessness, an increased frequency of diarrhea were treated once per day via oral administration or intramuscular injection with: 1) Cephradine according to manufacture's instruction (antibiotic group, n=15); and 2) 1.5 ml/kg of body weight of the formula-2.2 (n=10). Eight out ten (8/10, 80%) of the dogs stopped diarrhea after one dose of the treatment with formula-2.2.
# [2] = test system: sucking piglets with yellow watery diarrhea or infective gastroenteritis; assay: Treatment of piglet diarrhea at ages 1-5 days with formulations; format: in vivo
# Excerpt: Diarrhea is a common disorder with sucking or weaning piglets. Viral or bacterial infections are common causes of piglet diarrhea. Piglets with viral diarrhea usually have yellow watery stools and piglets with bacterial diarrhea usually have gray stools. Sometimes, yellow diarrhea is accompanied with vomiting showing the characteristic of infective gastroenteritis. Often, piglet diarrhea or infective gastroenteritis is caused by mixed infection of viruses and bacteria. Piglets younger than one week could have a serious viral diarrhea or infective gastroenteritis with high death rates from about 70% to over 90%.
# The formulations of 1.2, 2.2, 3.2 and 4.2 as prepared above in 6.1 were used for the treatment of diarrhea piglets at ages 1-5 days. […] In addition, combination of formula 1.2 and Enrofloxacin was also used for the treatment of piglet diarrhea.
# Seven groups of sucking piglets with yellow watery diarrhea or infective gastroenteritis at ages of 1-5 days were treated once per day via oral administration or muscular injection with: 1) 1 ml/kg of body weight of ORS alone (control group, n=50); 2) Enrofloxacin according to manufacture's instruction (antibiotic control, n=69); 3) 1 ml/kg of body weight of the formula-1.2 (n=49); 4) 1 ml/kg of body weight of the formula-2.2 (n=82); 5) 1 ml/kg of body weight of the formula-3.2 (n=55); 6) 1 ml/kg of body weight of the […]; and 7) 1 ml/kg of body weight of the formula-1.2 plus Enrofloxacin (n=32).
# [3] = test system: sucking or weaning piglets with various diarrheas or infective gastroenteritis; assay: Treatment of piglet diarrhea at ages 5-40 days with formula-2.2; format: in vivo
# Method: The formula-2.2 as prepared above in 6.1 was used for the treatment of diarrhea piglets at ages 5-40 days.
# Two groups of sucking or weaning piglets with various diarrheas or infective gastroenteritis at ages of 5-40 days were treated once per day via oral administration with: 1) Enrofloxacin according to manufacture's instruction (antibiotic group, n=139); and 2) 1 ml/kg of body weight of the formula-2.2 (n=262).
# rhesus rotavirus (RRV) = assay: Treatment of rotavirus infection of mouse pups with formulations; settings: RRV-infected mouse pups
# [4] = test system: influenza virus of A/PR/8/34(H1N1); format: in vivo, mouse
# [5] = test system: respiratory infections accompanied with the respiratory syndrome (asthma); assay: Treatment of respiratory infections or disorders of piglets; format: in vivo
# Excerpt: The formulations of 1.2 and 3.2 as prepared above in 6.1 were used for the prevention and treatment of respiratory infections or disorders of piglets. The ORS alone and a commercially available antibiotic product, Timicosin were used as controls. In addition, combination of formula 3.2 and Timicosin was used for the treatment of respiratory infections or disorders of piglets.
# Weaning piglets (10˜15 kg, aged 5-7 weeks) suffered from respiratory infections accompanied with the respiratory syndrome characterized by asthma-like symptoms (difficulty with breath). The sick piglets were treated separately once a day via oral administration or intramuscular injection with 1) Tilmicosin according to manufacture's instructions (n=39); 2) 1 ml/kg of body weight of the formula-3.2 (n=36); and 3) Tilmicosin and 1 ml/kg of body weight of the formula-3.2 (n=41).
# [6] = test system: dogs suffered from respiratory infections; assay: Treatment of respiratory infections of dogs; format: in vivo
# Method: The formula-3.2 as prepared above in 6.1 was used via oral administration for the prevention or treatment of respiratory infections or disorders of dogs.
# Two groups of dogs suffered from respiratory infections with the symptoms of runny nose, coughing, chills, fever and weakness/fatigue (etc.) were treated once per day via oral administration or intramuscular injection with: 1) Tulathromycin according to manufacture's instruction (antibiotic group, n=6); 2) 1.5 ml/kg of body weight of the formula-3.2 (n =6); and 3) Tulathromycin and 1.5 ml/kg of body weight of the formula-3.2 (n=9).
smiles,measurement,setting,value
CC1=C(C(=O)O)N2C(=O)[C@@H](NC(=O)[C@H](N)C3=CCC=CC3)[C@H]2SC1 [Cephradine],"Later Rec (recovered after 24 hours), number of dogs",[1]; dogs with acute diarrhea,14
same,"Early Rec (recovered within 24 hours), number of dogs","[1]; dogs with acute diarrhea, once per day",1
same,OR,[1]; early recovery,0.02
same,Rate (%) of early recovery,[1]; recovered within 24 hours,6.67%
CCN1CCN(c2cc3c(cc2F)c(=O)c(C(=O)O)cn3C2CC2)CC1 [Enrofloxacin],No death (number of piglets),[2]; diarrhea piglets aged 1-5 days,21
same,OR(risk) of death,[2]; diarrhea piglets aged 1-5 days,0.19
same,Rate (%) death rate,[2]; diarrhea piglets aged 1-5 days,69.6%
same,Death (number of piglets),"[2]; diarrhea piglets aged 1-5 days, once per day",48
same,day after treatment at which majority of piglets stopped diarrhea,[2]; one dose treatment every day,4 to 5 days
same,day at which majority of piglets stopped diarrhea,[3]; after 4-5 dose treatment (one dose every day),4 to 5 days
same,"Later Rec (recovered after 48 hours), number of piglets",[3]; diarrhea piglets aged 5-40 days,136
same,"Early Rec (recovered within 48 hours), number of piglets","[3]; diarrhea piglets aged 5-40 days, oral once per day",3
same,OR,[3]; early recovery,0.001
same,Rate (%) of early recovery,[3]; recovered within 48 hours,2.16%
same,OR(effect),rhesus rotavirus (RRV),0.06
same,OR(risk) of death,rhesus rotavirus (RRV),0.76
same,duration of diarrhea,rhesus rotavirus (RRV),3 to 4 days
same,"outcome in words (diarrhea severity, death rate, efficacy)",rhesus rotavirus (RRV),serious
same,Not effect (number of pups),rhesus rotavirus (RRV); 50 μl oral once per day,48
same,Effect (number of pups),"rhesus rotavirus (RRV); 50 μl oral once per day, […]",3
same,Death (number of pups),rhesus rotavirus (RRV); kept 3 weeks,12
same,Death Rate(%),rhesus rotavirus (RRV); kept 3 weeks,23.5%
same,Not died (number of pups),rhesus rotavirus (RRV); kept 3 weeks,39
same,Rate(%) of effect,rhesus rotavirus (RRV); […],5.88%
CCOC(=O)C1=C[C@@H](OC(CC)CC)[C@H](NC(C)=O)[C@@H](N)C1 [Tamiflu],Odds Ratio of death,[4]; influenza infection of mice,0.36
same,Death (number of mice),"[4]; mouse, in vivo, ip",21
same,Rate (%) death rate,"[4]; mouse, in vivo, ip",70%
CC[C@H]1OC(=O)C[C@@H](O)[C@H](C)[C@@H](O[C@@H]2O[C@H](C)[C@@H](O)[C@H](N(C)C)[C@H]2O)[C@@H](CCN2C[C@H](C)C[C@H](C)C2)C[C@@H](C)C(=O)/C=C/C(C)=C/[C@@H]1CO[C@@H]1O[C@H](C)[C@@H](O)[C@@H](OC)[C@H]1OC [Tilmicosin],doses needed for getting recovered,[5]; in vivo,4-5 doses
same,Odds Ratio of death,[5]; piglets with respiratory syndrome,3.63
same,Rate (%) death,[5]; weaning piglets with respiratory syndrome (asthma),28.2%
same,Death (number of piglets),"[5]; weaning piglets with respiratory syndrome (asthma), once a day",11
CCCNC[C@]1(O)[C@H](C)O[C@@H](O[C@H]2[C@H](C)[C@@H](O[C@@H]3O[C@H](C)C[C@H](N(C)C)[C@H]3O)[C@](C)(O)C[C@@H](C)CN[C@H](C)[C@@H](O)[C@](C)(O)[C@@H](CC)OC(=O)[C@@H]2C)C[C@@]1(C)OC [Tulathromycin],doses needed for getting recovered,"[6]; dog, in vivo",4-7 doses
same,"Later Rec, number of dogs",[6]; dogs with respiratory infections,5
same,"Early Rec (recovered within 48-72 hours), number of dogs","[6]; dogs with respiratory infections, once per day",1
same,OR,[6]; early recovery,0.04
same,Rate (%) of early recovery,[6]; recovered within 48-72 hours,16.7%
